Results on seven compounds are retold here after article PMC12562781 (International Journal of Molecular Sciences, 2025).

Molecules are shown by their SMILES. Values after ≈ are worked out from the molar mass of the structure shown. Read-outs that look alike come from different tables or passages of the source.

For data set [1], the system named is breast adenocarcinoma cancer cell lines (MDA). The experiment in a line: MTT cytotoxicity assay, MDA cells. Conditions: Homo sapiens, 24 h, read-out: IC50 Values, cytotoxicity, MDA. Here is the method:
(§1) The cells were allowed to grow to 90% confluency in an incubator set at 37 °C containing 5% CO2, before they were trypsinized and cultured in 96-well tissue culture plates. Stock and final concentrations of the compounds were prepared in the culture media.
(§2) Just 5 h before the elapse of 24 h, 10 µL of 5 mg/mL MTT solution was added to each well, and the plates were further incubated. At the end of the incubation period, the media was removed from each well and replaced with 50 µL of DMSO. The plates were shaken on a rotating shaker for 10 min before taking readings at 560 nm using a microplate reader (Elisa Plate Reader, BioTek Instruments, Inc., Winooski, VT, USA). […] IC50 values were calculated from the graphs as compound concentrations that reduced the absorbance at 560 nm by 50% of the untreated control wells. To exclude background readings, three wells were seeded with untreated cells in which MTT was not added. Assays were performed in triplicate to ensure reproducibility. The percentage inhibitions of cell proliferation were calculated using the following formula:% Cytotoxicity = ((A − B)/A) × 100 where: A is the absorbance of the negative control (untreated cells). B is the absorbance of the treated cells.
(§3) Data were presented as the cumulative mean of each compound. Each compound was run in triplicate. GraphPad Prism (version 5) was used for statistical analysis of all data. For all the data, one-way analysis of variance (ANOVA) followed by Bonferroni’s multiple comparison tests was used to compare the means of one group with every other group. Statistical significance was set at 5%; thus, a p-value ≤ 0.05 was considered significant. Concentrations that inhibit cell proliferation by 50% (IC50) were calculated using Graphpad Prism 5 software.

Data set [2] deals with non-cancerous human fibroblast cell lines (KMST-6). The experiment in a line: MTT cytotoxicity assay, KMST-6 cells. In kind it is cell-based. Conditions: MTT, 24 h, 0.156 µM to 10 µM, triplicate; non-cancerous cells. The procedure: (§4) Assays were performed in triplicate to ensure reproducibility. […] B is the absorbance of the treated cells.
(§5) Each compound was run in triplicate.

In data set [3] the test system is human liver cancer cell lines (HepG2). The experiment in a line: MTT cytotoxicity assay, HepG2 cells. The conditions noted are these: HepG2, 24 h, read-out: IC50 Values, cytotoxicity, HepG2. The procedure: as §1, §2, §3
The subject of data set [4] is human prostate cancer cell lines (PC3). The data set can be described thus: MTT cytotoxicity assay, PC3 cells. Here is the method: as §1, §2
Data were presented as the cumulative mean of each compound. Each compound was run in triplicate. GraphPad Prism (version 5) was used for statistical analysis of all data. […]

In the next data set the test system is Plasmodium. Further details: method as in PMID 24108397. Conditions: cited from earlier work.
Another data set relates to MDA-MB-231. Conditions: cited from earlier work.
The test system of the next data set is HeLa cells. The arrangement: method as in PMID 24658565. The conditions noted are these: read-out: cytotoxic IC50, HeLa; cited from earlier work.
In another data set the test system is HT-29 cells. Further details: method as in PMID 24658565. Conditions: read-out: cytotoxic IC50, HT-29; cited from earlier work.
The next data set concerns MCF-7 cells. Further details: method as in PMID 24658565. Conditions: read-out: cytotoxic IC50, MCF-7; cited from earlier work.
A short description of data set [5]: MTT cytotoxicity assay, KMST-6 cells. In kind it is cell-based, human. The conditions noted are these: human. Here is the method:
as §4, §5

Data set [6] relates to human breast cancer cells (MDA-MB-231). Further details: method as in PMID 28231262. The conditions noted are these: cited from earlier work.
The test system of a further data set is Plasmodium berghei. Further details: method as in PMID 24108397. The conditions noted are these: mice; cited from earlier work.
For another data set, the system named is HEK293. The arrangement: method as in PMID 24108397. Conditions: cited from earlier work.
A further data set deals with HepG2. The arrangement: method as in PMID 24108397. Conditions: cited from earlier work.
Another data set has as its system Hep-G2. Conditions: cited from earlier work.
Another data set has as its system HL60 cells. Further details: method as in doi:10.1007/s00044-014-1093-y. The conditions noted are these: cited from earlier work.
The test system of another data set is Funtumia africana. The arrangement: method as in earlier work. The conditions noted are these: cited from earlier work.
Data set [7] relates to Vero cells and human liver cancer cells. The arrangement: method as in earlier work. Conditions: cited from earlier work.

For the compound `C[C@H]1[C@H](C)CC[C@]2(C(=O)O)CC[C@]3(C)C(=CC[C@@H]4[C@@]5(C)CC[C@H](O)C(C)(C)[C@@H]5CC[C@]43C)[C@H]12` [Compound 1, ursolic acid], the half-maximal inhibitory concentration (IC50) in data set [1] was greater than 5 µM; in data set [3], 0.261 µM; in data set [4] (read-out: IC50 Values, cytotoxicity, PC3, MTT, 24 h, 0.156 µM to 10 µM, triplicate), 0.262 µM; in the data set with HeLa cells, 10 µM; with HT-29 cells, 10 µM; in the data set on MCF-7 cells it was 20 µM. Further, the “IC50 Values, cytotoxicity, KMST-6” value in data set [2] is “ns”. Moreover, the “anti-plasmodial IC50” value in the data set on Plasmodium is 6.8 µg/mL. Moreover, in the data set on MDA-MB-231, the “concentration that inhibits cell proliferation” value is on record as no less than 160 µg/mL.

Turning to `CC1(C)CC[C@]2(C(=O)O)CC[C@]3(C)C(=CC[C@@H]4[C@@]5(C)CC[C@H](O)C(C)(C)[C@@H]5CC[C@]43C)[C@@H]2C1` [Compound 2, oleanolic acid], the IC50 in [1] was 4.48 µM; in [3] it was 1.2 µM. Besides, the IC50 at 24 h in data set [5] (KMST-6 non-cancerous fibroblast cells, MTT, 24 h, 0.156 µM to 10 µM, triplicate, non-cancerous cells, read-out: IC50 Values, cytotoxicity, KMST-6) is 3.88 µM. Moreover, the “effect on cell migration” value in data set [6] is reported as “clearly enhanced cell migration”.

For `CC(=O)O[C@H]1CC[C@]2(C)[C@H]3CC=C4[C@@H]5[C@@H](C)[C@H](C)CC[C@]5(C(=O)O)CC[C@@]4(C)[C@]3(C)CC[C@H]2C1(C)C` [Compound 3, 3-O-acetyl ursolic acid], the IC50 came out at 3.93 µM in data set [1] and 0.85 µM in data set [3]. This compound also gave an IC50 at 24 h in data set [5] of 4.88 µM. For the same compound, the “IC50 Values, cytotoxicity, PC3” value in data set [4] is recorded as “ns”. In the data set on Plasmodium berghei, the decrease of parasitemia is recorded as 94.01%. Further, the “cytotoxicity IC50, HEK293” value in the data set on HEK293 is 366.00 µg/mL. Besides, in the data set on HepG2, the “cytotoxicity IC50, HepG2” value was 566.09 µg/mL. Moreover, the “cytotoxicity IC50, Hep-G2” value with Hep-G2 is 4.73 µg/mL.

In the case of `COC(=O)[C@]12CC[C@@H](C)[C@H](C)[C@H]1C1=CC[C@@H]3[C@@]4(C)CC[C@H](O)C(C)(C)[C@@H]4CC[C@@]3(C)[C@]1(C)CC2` [Compound 4, ursolic-28-methylate], the IC50 in data set [1] is 2.48 µM; in [3] it was 1.6 µM. This compound also gave an IC50 at 24 h in data set [5] greater than 5 µM. The “ED50, HL60” value in the data set on HL60 cells is 22.7 µg/mL (≈ 48.2 µM). Moreover, the MIC in the data set on Funtumia africana is 62.5 µg/mL (≈ 133 µM). Also, the “cytotoxicity IC50” value in [7] was 10.4 µg/mL.

As for `COC(=O)[C@]12CC[C@@H](C)[C@H](C)C1C1=CCC3[C@@]4(C)CC[C@H](OC(C)=O)C(C)(C)C4CC[C@@]3(C)[C@]1(C)CC2` (some centres unmarked) [Compound 5, 3-acetylursolic-methylate], the figures for the IC50 in [1] and in [3] were 1.9 µM and 0.85 µM, respectively. Besides, the concentration for half-maximal inhibition (IC50) at 24 h in data set [5] is greater than 5 µM.

On to `COC1CCC2(C)C3CCC4(C)C(=CCC5(C)CCC(C)(C)CC54)C3(C)CCC2C1(C)C` (centres unmarked) [sawamilletin], for which the “anti-plasmodial IC50” value with Plasmodium (unit not given) is given as greater than 100.

As for `CC1(C)CC[C@]2(C)CC=C3[C@]4(C)CC[C@H]5C(C)(C)[C@@H](O)CC[C@]5(C)[C@H]4CC[C@@]3(C)[C@@H]2C1` [taraxerol], the “anti-plasmodial IC50” value in the data set with Plasmodium (unit not given) is reported as greater than 100.
